Legend:
Type in all cases: in vivo, mice
HSPCs = assay: Mobilization of HSPCs into peripheral blood (CFU-HPC assay)
Procedure: (§1) Mice were administered the β-adrenergic agonists isoproterenol (10 mg/kg i.p.), clenbuterol (5 mg/kg i.p.) and BRL 37344 (10 mg/kg i.p.), the cannabinoid receptor agonists ACEA (10 mg/kg i.p.) and GP1a (5 mg/kg i.p.), or vehicle either on 4 consecutive days or 2 hours prior to the cull. 1 hour after the last injection, mice were administered the CXCR4 antagonist AMD3100 (5 mg/kg i.p.) or vehicle. 1 hour later their blood was collected via cardiac puncture for enumeration of circulating CFU-HPCs and CFU-Fs. Mice were administered murine G-CSF (100 μg/kg i.p.) or vehicle on 4 consecutive days. On day 5, blood was collected via cardiac puncture for enumeration of circulating HSPCs.
(§2) Harvested peripheral blood or perfusate was red blood cell-lysed and 1×10^5 cells were added to tissue culture-treated petri dishes containing 1 ml of Methocult™ (M3434; StemCell Technologies) to select for CFU-HPCs. Cultures were incubated at 37° C. and quantified on day 12. Similarly, 1×10^6 bone marrow cells harvested by bone marrow flush of the hind limb femur were plated for CFU-HPCs.

free fatty acids = assay: Free fatty acid assay in blood plasma; conditions: treatment over 4 days
Procedure: as §1
Free fatty acid content in blood plasma was quantified using a serum/plasma fatty acid detection Kit (Zen Bio) and the assay was performed according to the manufacturers' instructions. Data are expressed as μM concentration of free fatty acids.

HPCs = assay: In situ perfusion of mouse hind limb, CFU-HPCs in perfusate; conditions: four day pretreatment, b3 adrenergic agonist in combination with FAAH inhibitor
Procedure: Mice were administered BRL 37344 (10 mg/kg i.p.) or vehicle on 4 consecutive days. 1 hour after the last injection, the mice were anaesthetized. The femoral vein and artery were exposed and cannulated in situ immediately after the hind limb was isolated by occlusion of the surrounding arteries as previously described (Pitchford et al, 2009; Pitchford et al, 2010). Perfusion buffer was infused via the arterial cannula and removed from the venous cannula using a Minipuls Peristaltic Pump (Anachem). The hind limb was initially infused with AMD3100 (0.1 mM) or vehicle for 10 minutes using an infusion/withdrawal pump (Harvard Instruments) and was further perfused for 50 minutes with perfusion buffer (Pitchford et al, 2010). The perfusate was collected over 60 minutes and then centrifuged and resuspended in DMEM (Gibco) +20% fetal bovine serum for enumeration of CFU-HPCs and CFU-Fs.
as §2

CFU-Fs (MSPCs) = assay: Mobilization of MSPCs into peripheral blood (CFU-F assay)
[1] = 2 h versus 4 d pre-treatment, then AMD3100
[2] = pre-treated once daily for 4 days, then AMD3100, blood 1 hour later

Q: Which results are given for `C[C@H](Cc1ccc(OCC(=O)O)cc1)NC[C@H](O)c1cccc(Cl)c1` [BRL37344]?
A: pre-treatment time needed for HSPC mobilization (HSPCs; [1]): required the pre-treatment of mice over 4 days to see this effect; circulating HSPC numbers (HSPCs; [2]): significantly boosted circulating numbers of HSPCs and CFU-Fs as compared to that observed with isoproterenol and AMD3100 in combination; FFA levels in plasma (free fatty acids): an increase; HPC egress from the bone marrow in response to infusion of the CXCR4 antagonist (HPCs): significantly enhanced both HPC and MSC egress from the bone marrow; pre-treatment time needed for CFU-F mobilization (CFU-Fs (MSPCs); [1]): required the pre-treatment of mice over 4 days to see this effect; dose dependence of CFU-F mobilization in response to the CXCR4 antagonist (CFU-Fs (MSPCs); mouse, in vivo): dose response relationship; circulating CFU-Fs (CFU-Fs (MSPCs); [2]): significantly boosted circulating numbers of HSPCs and CFU-Fs as compared to that observed with isoproterenol and AMD3100 in combination

— patent publication US20170355959A1, “METHODS FOR MOBILISING POPULATIONS OF STEM CELLS” (Imperial Innovations Limited, priority 2014, published 2017)
